Test results taken from US20150296781A1, “ACRYLATE/METHACRYLATE-BASED TRIBLOCK COPOLYMER/ANTHRANILIC DIAMIDE COMPOSITIONS FOR PROPAGULE COATING” (priority 2013, published 2015).

Tested on: 2nd instar larva of Spodoptera frugiperda
Assay: Laboratory test with 2nd instar larva of Spodoptera frugiperda on maize leaves
Type: in vivo

SMILES: CNC(=O)c1cc(Cl)cc(C)c1NC(=O)c1cc(Br)nn1-c1ncccc1Cl [Compound 2, 3-bromo-N-[4-chloro-2-methyl-6-[(methylamino)carbonyl]phenyl]-1-(3-chloro-2-pyridinyl)-1H-pyrazole-5-carboxamide]
- concentration per g of leaf tissue resulting in 50% mortality within 72 h: 0.033 micrograms per g of leaf tissu
- concentration per g of tissue needed to achieve 100% mortality within 72 h: 0.037 micrograms per g of tissue
